According to PMC12615385, “A combined chemo-enzymatic treatment for the oxidation of epoxy-based carbon fiber-reinforced polymers (CFRPs)” (Frontiers in Bioengineering and Biotechnology, 2025):

Legend:
Settings in all cases: 0.1 M acetate buffer pH 4, 25 °C, 30 min
ItL-01 = tested on: ItL-01
ItL-02 = tested on: ItL-02
ItL-03 = tested on: ItL-03
purified protein = substrate: CCn1c(=NN=c2sc3cc(S(=O)(=O)O)ccc3n2CC)sc2cc(S(=O)(=O)O)ccc21; assay: purified protein; type: biochemical, Escherichia coli

| Molecule | Km (ItL-01) | Km (ItL-02) | Km (ItL-03) | Km (purified protein) | kcat (purified protein) |
| --- | --- | --- | --- | --- | --- |
| CCn1c(=NN=c2sc3cc(S(=O)(=O)O)ccc3n2CC)sc2cc(S(=O)(=O)O)ccc21 [ABTS, 2,2′-azino-bis(3-ethylbenzothiazoline-6-sulfonic acid)] | 4.5 ± 1.42 mM | 3.64 ± 0.26 mM | 7.76 mM |  |  |
| CueO (Escherichia coli K-12) (protein, codon-optimised synthetic gene in pET21a(+), E. coli T7 Shuffle, Ni-NTA purified; 50-60 kDa) AERPTLPIPDLLTTDARNRIQLTIGAGQSTFGGKTATTWGYNGNLLGPAVKLQRGKAVTVDIYNQLTEETTLHWHGLEVPGEVDGGPQGIIPPGGKRSVTLNVDQPAATCWFHPHQHGKTGRQVAMGLAGLVVIEDDEILKLMLPKQWGIDDVPVIVQDKKFSADGQIDYQLDVMTAAVGWFGDTLLTNGAIYPQHAAPRGWLRLRLLNGCNARSLNFATSDNRPLYVIASDGGLLPEPVKVSELPVLMGERFEVLVEVNDNKPFDLVTLPVSQMGMAIAPFDKPHPVMRIQPIAISASGALPDTLSSLPALPSLEGLTVRKLQLSMDPMLDMMGMQMLMEKYGDQAMAGMDHSQMMGHMGHGNMNHMNHGGKFDFHHANKINGQAFDMNKPMFAAAKGQYERWVISGVGDMMLHPFHIHGTQFRILSENGKPPAAHRAGWKDTVKVEGNVSEVLVKFNHDAPKEHAYMAHCHLLEHEDTGMMLGFTV |  |  |  | 2.39 ± 0.23 mM | 0.27 ± 0.03 min⁻¹ |
